Reference: US8119168B2, “Personal care compositions comprising a zinc containing material in an aqueous surfactant composition” (The Procter & Gamble Company, priority 2002, dated 2012)

How the values were obtained:
[1] = Relative zinc lability by xylenol orange (XO) color change, absorbance at 572 nm; assay type: physicochemical; details: for Relative Zinc Lability (%) Simple Surfactant System Alone: 6% sodium lauryl sulfate
Protocol: Zinc lability is a measure of the chemical availability of zinc ion. […] The use of partially soluble forms of zinc salts and/or incorporation in a matrix with potential complexants generally lowers the zinc lability substantially below the defined 100% maximum.
Zinc lability is assessed by combining a diluted zinc-containing solution or dispersion with the metallochromic dye xylenol orange (XO) and measurement of the degree of color change under specified conditions. The magnitude of color formation is proportional to the level of labile zinc. The procedure developed has been optimized for aqueous surfactant formulations but may be adapted to other physical product forms as well.
A spectrophotometer is used to quantify the color change at 572 nm, the wavelength of optimum color change for XO. The spectrophotometer is set to zero absorbance at 572 nm utilizing a product control as close in composition to the test product except excluding the potentially labile form of zinc. The control and test products are then treated identically as follows. A 50 μl product sample is dispensed into a jar and 95 ml of deaerated, distilled water are added and stirred. 5 mL of a 23 mg/mL xylenol orange stock solution at pH 5.0 is pipetted into the sample jar; this is considered time 0. The pH is then adjusted to 5.50±0.01 using dilute HCl or NaOH. After 10.0 minutes, a portion of the sample is filtered (0.45μ) and the absorbance measured at 572 nm. The measured absorbance is then compared to a separately measured control to determine the relative zinc lability (zero TO 100%). The 100% lability control is prepared in a matrix similar to the test products but utilizing a soluble zinc material (such as zinc sulfate) incorporated at an equivalent level on a zinc basis. The absorbance of the 100% lability control is measured as above for the test materials.

[2] = Zincon metallochromic dye test for available Zn^2+ (visual color change orange to blue); assay type: physicochemical; details: ZCM ~30 mg/10 ml water, pH 7-11, binary visual assessment
Excerpt: Zinc-containing materials (ZCMs) differ with respect to how strongly the zinc ion (Zn^2+) is held by counterions in the crystal lattice. The benefits discussed herein depend upon having available Zn^2+. […] The response is a binary visual assessment of whether or not the color changes indicating zinc-binding.
The method is based on the commercial metallochromic dye zincon. Zincon changes from an orange color to blue upon binding zinc and provides the basis for detecting available Zn^2+:
The specific procedure involves making a stock solution of zincon in ethanol (˜50 mg/10 ml ethanol). The ZCM is then added to water (˜30 mg/10 ml water) and agitated (pH range should be 7-11). Three to four drops of zincon solution are then added to the ZCM in water, agitated and a visual assessment of color change made.

Compound	Relative Zinc Lability (%) Simple Surfactant System Alone [1] [%]	available Zn^2+ (zincon color change) [2]	Relative Zinc Lability (%) Simple Surfactant System Plus Sodium Bicarbonate ([1]; 6% sodium lauryl sulfate plus sodium bicarbonate at 0.2% level) [%]
O=C([O-])[O-].O=C([O-])[O-].[OH-].[OH-].[OH-].[OH-].[OH-].[OH-].[Zn+2].[Zn+2].[Zn+2].[Zn+2].[Zn+2] [Hydrozincite]	37.0		
[O]=[Zn] [Zinc Oxide]	1.5	have available zinc	33.2
O=C([O-])CN(CCN(CC(=O)[O-])CC(=O)[O-])CC(=O)[O-].[Na+].[Na+].[Zn+2] [zinc EDTA]		not having available Zn^2+	
CC(=O)[O-].CC(=O)[O-].[Zn+2] [zinc acetate]		have available zinc	
N=C(N)NCCC[C@H](N)C(=O)O.[Zn] [zinc arginine]		have available zinc	
[Cl-].[Cl-].[Zn+2] [zinc chloride]		have available zinc	
O=C([O-])CC(O)(CC(=O)[O-])C(=O)[O-].O=C([O-])CC(O)(CC(=O)[O-])C(=O)[O-].[Zn+2].[Zn+2].[Zn+2] [zinc citrate]		have available zinc	
[OH-].[OH-].[Zn+2] [zinc hydroxide]		have available zinc	
CC(O)C(=O)[O-].CC(O)C(=O)[O-].[Zn+2] (stereo not drawn) [zinc lactate]		have available zinc	
OCC(O)CO.[Zn] [zinc monoglycerolate]		have available zinc	
O=C([O-])C(=O)[O-].[Zn+2] [zinc oxalate]		have available zinc	
O=S(=O)([O-])[O-].[Zn+2] [zinc sulfate]		have available zinc	
zinc hexaborate		have available zinc	
zinc histadine		have available zinc	
zinc phytate		not having available Zn^2+	
zinc stearate		have available zinc	
